{"source": "ChEMBL document CHEMBL1123622", "about": "“Quantitative structure-activity relationships of the bitter thresholds of amino acids, peptides, and their derivatives” (J Med Chem, 1987)", "key": {"[1]": {"assay": "Bitter threshold value; B denotes 'bitter'", "assay_type": "functional"}, "[2]": {"assay": "Bitter threshold value; NI denotes'Not identifiable (Citrous or fruity taste)'", "assay_type": "functional"}}, "note": "Non-standard residues stand in square brackets, D forms with d. Residues, ends and D or L forms follow the SMILES beside them."}
{"smiles": "CC[C@H](C)[C@H](NC(=O)[C@H](C)N)C(=O)N[C@@H](C)C(=O)O", "note": "(H-Ala-Ile-Ala-OH)", "values": [{"measurement": "Log 1/T", "setting": "[1]", "result": "Bitter"}]}
{"smiles": "CC(C)C[C@@H](N)C(=O)NCC(=O)O", "note": "(H-[dL]-Gly-OH)", "values": [{"measurement": "Log 1/T", "setting": "[1]", "result": "Bitter"}]}
{"smiles": "CC(C)[C@H](NC(=O)[C@@H]1CCCN1)C(=O)O", "note": "(H-Pro-Val-OH)", "values": [{"measurement": "Log 1/T", "setting": "[2]", "result": "Not identifiable"}]}
{"smiles": "O=C(O)CNC(=O)[C@@H]1CCCN1", "note": "(H-Pro-Gly-OH)", "values": [{"measurement": "Log 1/T", "setting": "[2]", "result": "Not identifiable"}]}
{"smiles": "CC(C)C[C@H](NC(=O)[C@H](C)NC(=O)[C@H](C)N)C(=O)O", "note": "(H-Ala-Ala-Leu-OH)", "values": [{"measurement": "Log 1/T", "setting": "[1]", "result": "Bitter"}]}
{"smiles": "CC(C)C[C@H](NC(=O)[C@H](C)NC(=O)CN)C(=O)O", "note": "(H-Gly-Ala-Leu-OH)", "values": [{"measurement": "Log 1/T", "setting": "[1]", "result": "Bitter"}]}
